This passage reports IC50 results from PubChem BioAssay AID1117352.

Active and inactive are the calls of the source. How the calls were made is not given here. Where only a bound is given, the exact number is not on record here.

This experiment has as its system DLD-1 viability, CellTiter-Glo ATP luminescence. The experiment can be described thus: Dose-response reduction of DLD-1 viability by CellTiter-Glo luminescence, IC50 (AID 1117352).
For the compound `O=C(O)C1(C(=O)O)CCC1.[NH2-].[NH2-].[Pt+2]`, the IC50 is > 20000 nM (inactive).

Consider `OCCN1CCN(CC/C=C2/c3ccccc3Sc3ccc(C(F)(F)F)cc32)CC1`, for which the IC50 is 1470 nM.

On to `O=C1[O][Bi][O]c2ccccc21`, for which the IC50 was > 20000 nM (inactive).

`CC(=O)[O][Hg][c]1ccccc1`: the IC50 is 736 nM.

Take `CCCCCCCCCCCCCC[N+](C)(C)C`: the IC50 was 475 nM.

Regarding `Cc1ccc([N+](=O)[O-])[c]2c1[O][Hg]2`, the IC50 was 1620 nM.
